{
  "source": "patent US20220313789A1",
  "about": "“TARGETING MELANOCORTIN 3 RECEPTOR FOR TREATMENT/PREVENTION OF EATING, METABOLISM, AND/OR EMOTIONAL DISORDERS” (The Regents of the University of Michigan, priority 2019, published 2022)",
  "key": {"AgRP neurons": {"test_system": "AgRP neurons", "experiment": "Feeding after MC3R agonist with chemogenetic (hM4Di) inhibition of AgRP neurons", "assay_type": "in vivo, mice", "conditions": "C18; CNO 0.1 mg/kg, i.p., inhibitory DREADD in AgRP neurons", "procedure": "FIG. 7. […] Either saline or CNO (1 mg/kg, i.p.) was administered fifteen minutes prior to i.c.v. injections. […] Data represented as mean+/−s.e.m.\nA and B: Schematic of experimental strategy to express inhibitory DREADD virus in hypothalamic AgRP neurons (A) and representative image of DREADD transduced AgRP neurons (B). Scale bar, 200 um. C: Food intake following administration of C18 in the presence of saline or CNO (0.1 mg/kg, i.p.). […] D: RNAscope analysis of MC3R expression in WT and AgRP-MC3R KI mice. […] Scale bar, 500 um.\nTo inhibit AgRP neurons, the arcuate nucleus of AgRP-Cre mice was targeted with stereotaxic viral injections of Cre-dependent AAV viral vectors expressing the chemogenetic inhibitor hM4Di (FIG. 7)."}, "MC3R KO mice": {"test_system": "MC3R KO mice", "experiment": "Feeding after i.c.v. administration in MC3R KO mice", "assay_type": "in vivo", "conditions": "i.c.v. 5 ug vs vehicle", "procedure": "FIG. 13. […] Data shown as mean+/−s.e.m. Panels A and B analyzed with Student's paired t-test. n=9 mice for panels A and B.\nB: 24-hour food intake following administration of vehicle (aCSF) or C18 to WT mice. […] C: Change in BW following injection of vehicle or C18 (5 ug). D and E: Cumulative food intake (D) and 24-hour food intake (E) following C18 or vehicle administration in MC3R KO mice. […] F: Cumulative food intake following administration of the MC3R antagonist C11 or vehicle. […] G: 24-hour food intake in WT mice following administration of C11. H: Change in BW following injection of vehicle or C11 (5 ug). I and J: Food intake following i.c.v. injection of vehicle (DMSO, 500 nl) or C11 (5 ug, 500 nl) in MC3R KO mice. […] Data represents mean+/−s.e.m. […] Panels B, C, G, H, and J analyzed with unpaired Student's t-test. n=7 mice and n=8 mice for vehicle and C18 groups in panels A-C. n=19 mice for panels F and G. n=6 mice for vehicle and n=8 mice for C11 group in panel H. n=12 mice for vehicle and C18 group in panels D and E. n=8 mice for vehicle and C11 groups in panels I and J.\nFor central administration of MC3R agonist compounds we first administered vehicle injections (500 nl DMSO) for 2-4 consecutive days to habituate mice to handling and injection. […] Body weight was measured daily immediately prior to injections."}, "MC3R": {"molecular_target": "T1, MC3R (Mus musculus, UniProt P33033)", "T1 construct": "from tissue; host or cells: living mice (C57/BL6J background), central nervous system / hypothalamus", "T1 sequence (P33033 whole entry)": "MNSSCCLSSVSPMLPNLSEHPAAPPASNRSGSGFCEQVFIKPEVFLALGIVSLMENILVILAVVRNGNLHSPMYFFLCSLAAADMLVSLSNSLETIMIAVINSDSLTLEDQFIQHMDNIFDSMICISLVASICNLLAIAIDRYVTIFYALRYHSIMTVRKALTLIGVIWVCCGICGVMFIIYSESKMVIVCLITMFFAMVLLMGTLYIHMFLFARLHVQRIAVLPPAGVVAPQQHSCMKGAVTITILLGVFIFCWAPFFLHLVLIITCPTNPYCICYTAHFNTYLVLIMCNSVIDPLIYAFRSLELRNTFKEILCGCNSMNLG", "experiment": "Elevated plus maze", "assay_type": "in vivo, mice", "conditions": "single peripheral injection", "procedure": "Anxiety behavioral assays were performed in the following order with 2-4 days separated between each anxiety assay: elevated plus maze, open field test, novelty suppressed feeding test. Behavioral assays were performed during the light cycle between 10 am-5 pm. Open field and elevated plus maze testing was performed in ad libitum fed mice with one exception.\nTo perform elevated plus maze tests mice were initially placed into the closed arm of the elevated plus maze arena. The arena consisted of 2 50 cm long arms. One arm was enclosed by walls while the other arm was open. Activity in the maze was recorded for five minutes using animal tracking software (ANYmaze, Stoelting). Latency to enter the open arms, total distance traveled, entries to open arms, time in open arms, and distance traveled in the open arms was automatically calculated using tracking software. Treatment schedules for the elevated plus maze were identical to those described for the open field test."}},
  "data": [
    {"substance": "Ac-Arg-Arg-(pI)DPhe-Tic-NH2 [compound 18]", "values": [
      {"measurement": "Food intake in the presence of saline or CNO", "setting": "AgRP neurons", "result": "increased food intake following administration of saline but not following CNO mediated inhibition of AgRP neurons"},
      {"measurement": "Food intake, cumulative/acute and 24-hour", "setting": "MC3R KO mice", "result": "No difference in food intake was detected following C18 administration"}
    ]},
    {"substance": "H-Tyr-Val-Met-Gly-His-Phe-Arg-DTrp-Asp-Arg-Phe-Gly-OH [D-Trp8-γ-MSH]", "values": [
      {"measurement": "anxiety in the elevated plus maze assay", "setting": "MC3R", "result": "trend towards reduction of anxiety"}
    ]}
  ]
}
